Assays:
[1] = biological target: BTK (Homo sapiens (Human), UniProt Q06187); test: BTK enzyme experiment (ADP-Glo kinase assay); assay type: biochemical; conditions: 10 nM BTK, ATP 125 μM, Poly(Glu4, Tyr1), 90 minutes at 20° C.; read-out: BTK(WT) IC50
Procedure, shortened: (§1)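 Wild-type or C481S BTK, added as 2× solution at 10 nM, preincubated 10 min with 3-fold compound dilutions in 50 mM HEPES pH 7.5, 10 mM MgCl2, 2 mM DTT, 0.0015% Brij-35. ADP-Glo luminescence norm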

[2] = biological target: p-BTK (WT) (Homo sapiens (Human), UniProt Q06187); test: p-BTK cell experiment, HEK293 transfected with WT-BTK plasmid (P-BTK Y223 sandwich ELISA); assay type: cell-based; conditions: HEK293 cells, compound cultured for two hours
Experimental: (§2) Day 1: HEK293 cells (ADDEXBIO, T0011001) at logarithmic growth phase were taken, digested with enzyme EDTA, collected and counted, and 2E6 cells were inoculated in a 10 cm culture dish and cultured overnight. Day 2: A mixed solution containing 6 μg of WT-BTK/C481S-BTK plasmid and 18 μL of FuGENE HD transfection reagent was prepared by using 1000 μL of Opti-MEM. After standing at room temperature for 10 minutes, the mixed solution was slowly added to the culture dish with a pipettor and cultured overnight. Day 3: The culture dish was taken out, and the cells were digested with enzyme EDTA, collected and counted, and 1E4 cells were inoculated in a 96-well cell culture plate and cultured overnight. A 3.16-fold gradient concentration stock solution of 1000× compound was prepared using DMSO, and placed at room temperature. Day 4: A prepared 1000× compound stock solution was taken, and diluted 200-fold to 5× compound stock solution with culture medium. 5× compound stock solution was added to each cell culture well with a final concentration of 1× compound stock solution and a DMSO content of 0.1%. DMSO was used as an experimental control. After the compound was added and cultured for two hours, the residual culture medium was removed. 100 μL of cell lysis buffer was added to each well, stood on ice for 30 minutes, and ultrasonically lysed with ice water for 5 minutes. After diluting the cell lysate in proportion, 80 μL of the mixture was transfer to an ELISA plate, and 80 μL of cell lysis buffer was added to the blank well. After incubating in an incubator at 37° C. for 2 hours, the plate was taken and the antibody incubation and color development termination operation were completed according to the instructions of Pathscan P-BTK (Y223) Sandwich ELISA Kit (Cell Signaling #23843 CA), and finally the OD value was read. The inhibition rate of the compound (%)=(ODcontrol−ODcompound)/(ODcontrol−ODblank)×100% was calculated. The compound gradient dilution concentration and the corresponding cell proliferation inhibition rate were fit by using Prism 8 four-parameter method, and IC50 value was calculated.

[3] = biological target: BTK (C481S) (Homo sapiens (Human), UniProt Q06187, C481S); test: BTK C481S enzyme experiment (ADP-Glo kinase assay); assay type: biochemical; conditions: 10 nM BTK C481S, ATP 125 μM, Poly(Glu4, Tyr1), 90 minutes at 20° C.
Procedure, shortened: as §1

[4] = biological target: p-BTK (C481S) (Homo sapiens (Human), UniProt Q06187, C481S); test: p-BTK cell experiment, HEK293 transfected with C481S-BTK plasmid (P-BTK Y223 sandwich ELISA); assay type: cell-based; conditions: HEK293 cells, compound cultured for two hours
Experimental: as §2

[5] = system: TMD-8 cells; test: TMD-8 proliferation inhibition experiment; assay type: cell-based; conditions: Homo sapiens, TMD8, 72 h, human diffuse large B lymphoma cells, three days incubation
Procedure, shortened: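 Log-phase cells seeded in 384-well plates (600 TMD-8 in RPMI 1640, 2000 OCI-LY10 in IMDM, both 10% FBS), then exposed one day later to 3-fold compound dilutions at 0.25% DMSO for three days. ADP-Glo luminescence read; inhibition versus DMSO and medium-only blank, IC50 by four-parameter fit.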

Sequence of p-BTK (WT) (Q06187 whole entry): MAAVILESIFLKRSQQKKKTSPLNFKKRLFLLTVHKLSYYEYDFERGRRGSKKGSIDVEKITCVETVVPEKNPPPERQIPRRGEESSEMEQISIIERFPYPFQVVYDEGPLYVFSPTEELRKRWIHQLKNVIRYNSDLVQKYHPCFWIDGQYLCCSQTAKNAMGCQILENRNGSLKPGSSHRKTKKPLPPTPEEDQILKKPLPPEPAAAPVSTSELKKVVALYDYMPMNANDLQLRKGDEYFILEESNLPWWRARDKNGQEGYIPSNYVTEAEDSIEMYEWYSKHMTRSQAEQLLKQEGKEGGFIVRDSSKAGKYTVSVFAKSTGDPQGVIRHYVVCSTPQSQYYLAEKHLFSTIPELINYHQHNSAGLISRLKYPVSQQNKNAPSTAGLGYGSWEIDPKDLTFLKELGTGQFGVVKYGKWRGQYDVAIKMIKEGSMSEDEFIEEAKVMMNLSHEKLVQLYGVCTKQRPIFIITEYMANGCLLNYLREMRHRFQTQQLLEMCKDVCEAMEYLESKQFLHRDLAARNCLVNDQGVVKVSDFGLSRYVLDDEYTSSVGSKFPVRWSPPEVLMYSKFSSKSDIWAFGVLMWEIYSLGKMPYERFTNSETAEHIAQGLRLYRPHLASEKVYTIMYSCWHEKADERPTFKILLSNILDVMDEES
Sequence of BTK (Q06187 whole entry): as above
Sequence of p-BTK (C481S) (Q06187 whole entry C481S): as the sequence (Q06187 whole entry) above, with C481S counted along it
Sequence of BTK (C481S) (Q06187 whole entry C481S): as the sequence (Q06187 whole entry) above, with C481S counted along it

Work on `CC(=O)N1CCC2(C1)Nc1c(cnc3[nH]cc(C(=O)c4ccc(Oc5ccccc5)cc4Cl)c13)NC2=O` (stereo not drawn) [Z4] yielded an IC50 [1] of 17.1 nM, an IC50 [2] of 375 nM and an IC50 [3] of 10.3 nM. It also gave an IC50 [4] of 340 nM.
For `CN1CCC2(C1)Nc1c(cnc3[nH]cc(C(=O)c4ccc(Oc5ccccc5)cc4F)c13)NC2=O` (stereo not drawn) [Z5], the IC50 [1] was 27.8 nM, the IC50 [2] was 35.8 nM and the IC50 [3] was 12 nM. For the same molecule, the IC50 [4] was 36.6 nM.
`COCC1(C)Nc2c(cnc3[nH]cc(C(=O)c4ccc(Oc5cc(C)ccn5)cc4Cl)c23)NC1=O` (stereo not drawn) [Z64, 9-(2-chloro-4-((4-methylpyridin-2-yl)oxy)benzoyl)-2-(methoxymethyl)-2-methyl-1,2,4,7-tetrahydro-3H-pyrrolo[3′,2′:5,6]pyrido[3,4-b]pyrazin-3-one] showed an IC50 [1] of 6.5 nM, an IC50 [2] of 65.8 nM and an IC50 [3] of 13.3 nM. It also gave an IC50 [4] of 90 nM.
Work on `CC1(C)Nc2c(cnc3[nH]cc(C(=O)c4ccccc4Cl)c23)NC1=O` [Z120, 9-(2-chlorobenzoyl)-2,2-dimethyl-1,2,4,7-tetrahydro-3H-pyrrolo[3′,2′:5,6]pyrido[3,4-b]pyrazin-3-one] yielded an IC50 [1] of 4.3 nM, an IC50 [2] of 2.5 nM and an IC50 [3] of 2 nM. It also gave an IC50 [4] of 1 nM.
Work on `[2H]C([2H])([2H])OC[C@]1(C)Nc2c(cnc3[nH]cc(C(=O)c4ccc(Oc5nccc(C)c5F)cc4Cl)c23)NC1=O` [Z146, (S)-9-(2-chloro-4-((3-fluoro-4-methylpyridin-2-yl)oxy)benzoyl)-2-((methoxy-d3)methyl)-2-methyl-1,2,4,7-tetrahydro-3H-pyrrolo[3′,2′:5,6]pyrido[3,4-b]pyrazin-3-one] yielded an IC50 [5] of 195 nM, an IC50 [1] of 10 nM and an IC50 [3] of 16.3 nM.
`COC[C@]1(C)Nc2c(cnc3[nH]cc(C(=O)c4ccc(Oc5ncccc5Cl)cc4Cl)c23)NC1=O` [Z147, (S)-9-(2-chloro-4-((3-chloropyridin-2-yl)oxy)benzoyl)-2-(methoxymethyl)-2-methyl-1,2,4,7-tetrahydro-3H-pyrrolo[3′,2′:5,6]pyrido[3,4-b]pyrazin-3-one] gave an IC50 [5] of 279 nM, an IC50 [1] of 11.1 nM and an IC50 [3] of 19.8 nM.
In the case of `COC[C@]1(C)Nc2c(cnc3[nH]cc(C(=O)c4ccc(Oc5ccccc5F)cc4F)c23)NC1=O` [Z156, (S)-9-(2-fluoro-4-(2-fluorophenoxy)benzoyl)-2-(methoxymethyl)-2-methyl-1,2,4,7-tetrahydro-3H-pyrrolo[3′,2′:5,6]pyrido[3,4-b]pyrazin-3-one], the IC50 [5] is reported as 117 nM, the IC50 [1] is reported as 20 nM and the IC50 [3] is reported as 10.5 nM.
In the case of `COC[C@]1(C)Nc2c(cnc3[nH]cc(C(=O)c4ccc(Oc5cccc(F)c5)cc4Cl)c23)NC1=O` [Z157, (S)-9-(2-chloro-4-(3-fluorophenoxy)benzoyl)-2-(methoxymethyl)-2-methyl-1,2,4,7-tetrahydro-3H-pyrrolo[3′,2′:5,6]pyrido[3,4-b]pyrazin-3-one], the IC50 [5] is reported as 145 nM, the IC50 [1] is reported as 15.2 nM and the IC50 [3] is reported as 10.8 nM.
With `[2H]C([2H])([2H])OC[C@]1(C)Nc2c(cnc3[nH]cc(C(=O)c4ccc(Oc5cccc(F)c5)cc4Cl)c23)NC1=O` [Z162, (S)-9-(2-chloro-4-(3-fluorophenoxy)benzoyl)-2-((methoxy-d3)methyl)-2-methyl-1,2,4,7-tetrahydro-3H-pyrrolo[3′,2′:5,6]pyrido[3,4-b]pyrazin-3-one] the IC50 [5] was 169 nM, the IC50 [1] was 25.6 nM and the IC50 [3] was 36 nM.
Work on `COC[C@]1(C)Nc2c(cnc3[nH]cc(C(=O)c4ccc(Oc5ccccc5OC)cc4Cl)c23)NC1=O` [Z163, (S)-9-(2-chloro-4-(2-methoxyphenoxy)benzoyl)-2-(methoxymethyl)-2-methyl-1,2,4,7-tetrahydro-3H-pyrrolo[3′,2′:5,6]pyrido[3,4-b]pyrazin-3-one] yielded an IC50 [5] of 75.7 nM, an IC50 [1] of 10.6 nM and an IC50 [3] of 16.5 nM.
`COC[C@]1(C)Nc2c(cnc3[nH]cc(C(=O)c4ccc(Oc5ccccc5Cl)cc4Cl)c23)NC1=O` [Z164, (S)-9-(2-chloro-4-(2-chlorophenoxy)benzoyl)-2-(methoxymethyl)-2-methyl-1,2,4,7-tetrahydro-3H-pyrrolo[3′,2′:5,6]pyrido[3,4-b]pyrazin-3-one] showed an IC50 [5] of 145 nM, an IC50 [1] of 22.4 nM and an IC50 [3] of 30.1 nM.
In the case of `COC[C@]1(C)Nc2c(cnc3[nH]cc(C(=O)c4ccc(Oc5cccc(Cl)c5)cc4Cl)c23)NC1=O` [Z165, (S)-9-(2-chloro-4-(3-chlorophenoxy)benzoyl)-2-(methoxymethyl)-2-methyl-1,2,4,7-tetrahydro-3H-pyrrolo[3′,2′:5,6]pyrido[3,4-b]pyrazin-3-one], the IC50 [5] is reported as 366 nM, the IC50 [1] is reported as 54.2 nM and the IC50 [3] is reported as 73.9 nM.
With `COC[C@]1(C)Nc2c(cnc3[nH]cc(C(=O)c4ccc(Oc5cccc(OC)c5)cc4Cl)c23)NC1=O` [Z166, (S)-9-(2-chloro-4-(3-methoxyphenoxy)benzoyl)-2-(methoxymethyl)-2-methyl-1,2,4,7-tetrahydro-3H-pyrrolo[3′,2′:5,6]pyrido[3,4-b]pyrazin-3-one] the IC50 [5] was 245 nM, the IC50 [1] was 34 nM and the IC50 [3] was 59.4 nM.
With `CCOC[C@]1(C)Nc2c(cnc3[nH]cc(C(=O)c4ccc(Oc5cc(C)ccn5)cc4Cl)c23)NC1=O` [Z167, (S)-9-(2-chloro-4-((4-methylpyridin-2-yl)oxy)benzoyl)-2-(ethoxymethyl)-2-methyl-1,2,4,7-tetrahydro-3H-pyrrolo[3′,2′:5,6]pyrido[3,4-b]pyrazin-3-one] the IC50 [5] was 372 nM, the IC50 [1] was 11.2 nM and the IC50 [3] was 12.1 nM.
Work on `COC[C@]1(C)Nc2c(cnc3[nH]cc(C(=O)c4ccc(Oc5cccc(F)c5OC)cc4Cl)c23)NC1=O` [Z173, (S)-9-(2-chloro-4-(3-fluoro-2-methoxyphenoxy)benzoyl)-2-(methoxymethyl)-2-methyl-1,2,4,7-tetrahydro-3H-pyrrolo[3′,2′:5,6]pyrido[3,4-b]pyrazin-3-one] yielded an IC50 [5] of 366 nM, an IC50 [1] of 26.5 nM and an IC50 [3] of 18.4 nM.
For `COC[C@]1(C)Nc2c(cnc3[nH]cc(C(=O)c4ccc(Oc5c(OC)ccc(F)c5F)cc4Cl)c23)NC1=O` [Z177, (S)-9-(2-chloro-4-(2,3-difluoro-6-methoxyphenoxy)benzoyl)-2-(methoxymethyl)-2-methyl-1,2,4,7-tetrahydro-3H-pyrrolo[3′,2′:5,6]pyrido[3,4-b]pyrazin-3-one], the IC50 [5] was 34.6 nM, the IC50 [1] was 6.4 nM and the IC50 [3] was 11.1 nM.
`[2H]C([2H])([2H])Oc1c(F)cccc1Oc1ccc(C(=O)c2c[nH]c3ncc4c(c23)N[C@@](C)(COC)C(=O)N4)c(Cl)c1` [Z178, (S)-9-(2-chloro-4-(3-fluoro-2-(methoxy-d3)phenoxy)benzoyl)-2-(methoxymethyl)-2-methyl-1,2,4,7-tetrahydro-3H-pyrrolo[3′,2′:5,6]pyrido[3,4-b]pyrazin-3-one] was tested, and the IC50 [5] was 257 nM, the IC50 [1] was 36.2 nM and the IC50 [3] was 42.3 nM.
For `COC[C@]1(C)Nc2c(cnc3[nH]cc(C(=O)c4ccc(F)c(F)c4Cl)c23)NC1=O` [Z195, (S)-9-(2-chloro-3,4-difluorobenzoyl)-2-(methoxymethyl)-2-methyl-1,2,4,7-tetrahydro-3H-pyrrolo[3′,2′:5,6]pyrido[3,4-b]pyrazin-3-one], the IC50 [1] was 3.9 nM, the IC50 [2] was 2.8 nM and the IC50 [3] was 3.9 nM. For the same molecule, the IC50 [4] was 1.4 nM.
Molecule `O=C(c1ccccc1Cl)c1c[nH]c2ncc3c(c12)NC1(CCOCC1)C(=O)N3` [Z197, 9′-(2-chlorobenzoyl)-2,3,4′,5,6,7′-hexahydrospiro[pyran-4,2′-pyrrolo[3′,2′:5,6]pyrido[3,4-b]pyrazin]-3′(1′H)-one] has an IC50 [1] of 3 nM, an IC50 [2] of 5.2 nM and an IC50 [3] of 1.3 nM. It also gave an IC50 [4] of 1.6 nM.
